Two molecules from US11135160B2, “Use of chlorogenic acid in preparing pharmaceuticals for treatment of LAG-3-mediated disease” (SICHUAN JIUZHANG BIOLOGICAL SCIENCE AND TECHNOLOGY CO. LTD, priority 2016, dated 2021) can be followed below.

Experiment [1] concerns LAG-3. The experiment is described as follows: Content of LAG-3 in CLL cells, ELISA with human lymphocyte activation gene 3 detection kit. The class given is cell-based. Conditions: 48 h. The procedure:
(§1) CLL cells and JurkatE6-1 cells in exponential phase of growth with good conditions were inoculated in 6 well plate at a concentration of 5×10^5/ml. Each kind of cells were set four groups, and each group has three repeat holes for administration. Amongst, three chlorogenic acid groups received the drug dissolved in blank 1640 medium (1 mL) at the desired concentration, while the blank control group received the same volume of blank 1640 medium. [table] In this example, by ELISA experiment, the activity of LAG-3 in cells of each group was determined using human lymphocyte activation gene 3 detection kit. After cells of each group acted with corresponding drugs for 48 h, cell culture fluid of each group was collected and divided into two parts. The protein of one part was quantitated using BCA method, and the activity of LAG-3 in cells of each group was determined using human lymphocyte activation gene 3 detection kit, to calculate the content of LAG-3 in each group.
On the technique in general: An ELISA detects its analyte on a solid surface through an enzyme-linked reagent.

Experiment [2] has as its system LAG-3 protein. Kind of experiment: Immunohistochemistry of LAG-3 protein expression in in situ lesion of GL261 glioma mice. The class given is in vivo, C57BL/6 mice. The following applies: 7 days, chlorogenic acid 40 mg/kg intraperitoneal, temozolomide 20 mg/kg oral, saline control 69%. The procedure:
GL261 glioma cells in exponential phase of growth were prepared as GL261 single cell suspension at a concentration of 5×10^5/μL. After anesthetized with 0.75% pentobarbital sodium at 6 μL/g, the hair at the puncture site was stripped, and the heads of mice were fixed with ALC-H mouse brain stereotactic apparatus for longitudinal incision of scalp. […] GL261 single cell suspension was injected using micro pump at 2.5 μL/min, and the pinpoint was sealed with bone wax, then the incision of scalp was carefully sutured. Totally, 35 mice were inoculated, and the remained 5 mice were normal. The dead mice were removed, and C57BL/6 mice inoculated with GL261 glioma cells were randomly divided to 3 groups, including the saline control group (NC group), chlorogenic acid injection group (CA group), and temozolomide (TMZ) positive control group. Amongst, CA group is intraperitoneally injected with 40 mg/kg chlorogenic acid everyday, NC group is injected with the same volume of saline, and TMZ treatment group orally takes 20 mg/kg temozolomide. […]
After completion of experiment, in situ lesion of each group mice was cut, while the brain tissue of 5 remained normal mice mentioned in step 2.2 was cut. […] The immunohistochemical results were analyzed by semiquantitative method, and finally, the expression rate of LAG-3 protein in different tissue sample was subjected to statistical analysis.

In experiment [3] the test system is LAG-3. Kind of experiment: Content of LAG-3 in JurkatE6-1 cells, ELISA with human lymphocyte activation gene 3 detection kit. Format: cell-based. The following applies: 48 h. The procedure:
as §1

Experiment [4] deals with CD3+T lymphocytes and CD4+T lymphocytes. The experiment is described as follows: T cell proliferation in peripheral blood of GL261 glioma mice. Format: in vivo, C57BL/6 mice. The following applies: 40 mg/kg intraperitoneal, 7 days, vs saline control group. The procedure:
GL261 glioma cells in exponential phase of growth were prepared as GL261 single cell suspension at a concentration of 5×10^5/μL. After anesthetized with 0.75% pentobarbital sodium at 6 μL/g, the hair at the puncture site was stripped, and the heads of mice were fixed with ALC-H mouse brain stereotactic apparatus for longitudinal incision of scalp. […] GL261 single cell suspension was injected using micro pump at 2.5 μL/min, and the pinpoint was sealed with bone wax, then the incision of scalp was carefully sutured. Totally, 35 mice were inoculated, and the remained 5 mice were normal. The dead mice were removed, and C57BL/6 mice inoculated with GL261 glioma cells were randomly divided to 3 groups, including the saline control group (NC group), chlorogenic acid injection group (CA group), and temozolomide (TMZ) positive control group. Amongst, CA group is intraperitoneally injected with 40 mg/kg chlorogenic acid everyday, NC group is injected with the same volume of saline, and TMZ treatment group orally takes 20 mg/kg temozolomide. [table] […] Detecting the proliferation status of T lymphocytes may reflect the strong/weak inhibitory action of LAG-3. […]

Experiment [5] concerns LAG-3 gene. The experiment is described as follows: Expression of LAG-3 gene in JurkatE6-1 cells by RT-PCR. Format: cell-based, human. Conditions: 48 h, vs blank control group (*p<0.05). The protocol:
(§2) CLL cells and JurkatE6-1 cells in exponential phase of growth with good conditions were inoculated in 6 well plate at a concentration of 5×10^5/ml. Each kind of cells were set four groups, and each group has three repeat holes for administration. Amongst, three chlorogenic acid groups received the drug dissolved in blank 1640 medium (1 mL) at the desired concentration, while the blank control group received the same volume of blank 1640 medium.
(§3) Using RNA prep Pure cultured cell/bacteria total RNA extraction kit (centrifugal column), total RNA was extracted from cells, and the operative procedures were carried out as the instructions. The detailed extraction procedures are briefly described as follows:
(§4) Using cDNA first strand synthesis kit and the resultant RNA solution by above extraction, the corresponding first strand cDNA was synthesized. The detailed reverse transcription procedures were carried out according to the instructions, that is briefly described as follows:
(§5) Because EvaGreen fluorescent dye can produce strong fluorescence when binding with the double-stranded DNA, the total amount of DNA formed by reaction can be obtained by detecting the final fluorescence intensity. To the test tube, were added fluorescent dye, cDNA product synthesized in steps (1) and (2), LAG-3 primer (Forward primer SEQ ID NO: 1 5′-[…]-3′, downstream primer SEQ ID NO: 2 5′-[…]-3′), and well mixed, then subjected to RT-PCR measurement. Amongst, […] group was set for each sample for calculating the relative magnitude, to perform the relative quantitation.

Experiment [6] deals with LAG-3 gene. The experiment is described as follows: Expression of LAG-3 gene in CLL cells by RT-PCR. The class given is cell-based, human. Conditions: 48 h, vs blank control group (*p<0.05). The procedure: as §2, §3, §4, §5
[7] abbreviates: high dose 100 μM, vs blank control group (*p<0.05).
[8] abbreviates: middle dose 50 μM, vs blank control group (*p<0.05).

Each structure is given as a SMILES string.

Take `O=C(/C=C/c1ccc(O)c(O)c1)O[C@@H]1C[C@](O)(C(=O)O)C[C@@H](O)[C@H]1O` [chlorogenic acid, 3-o-caffeoylquinic acid]: the “content of LAG-3” value in experiment [1] (setting [7]) is listed as “obviously different”; in experiment [1] (low dose 10 μM), “lowered”; in experiment [1] (setting [8]) it was “obviously different”; in experiment [3] (setting [7]), “obviously different”; in experiment [3] (low dose 10 μM) it was “lowered”; in experiment [3] (setting [8]), “obviously different”. Moreover, the “average percentage of LAG-3 protein high expression” value in experiment [2] is given as 23.78%. In addition, the “percentage of CD3+T lymphocytes in peripheral blood lymphocytes” value in experiment [4] is listed as “obviously promote the proliferation”. Further, in experiment [4], the “percentage of CD4+T lymphocytes in peripheral blood lymphocytes” value is “obviously promote the proliferation”. The “expression level of LAG-3 gene” value in experiment [5] (high dose 100 μM) is reported as “obviously reduced”; in experiment [5] (low dose 10 μM) it was “obviously reduced”; in experiment [5] (middle dose 50 μM) it was “obviously reduced”; in experiment [6] (high dose 100 μM), “obviously different”; in experiment [6] (low dose 10 μM), “obviously different”; in experiment [6] (middle dose 50 μM), “obviously different”.
Consider `Cn1nnc2c(C(N)=O)ncn2c1=O` [temozolomide, reference compound], for which the “average percentage of LAG-3 protein high expression” value in experiment [2] was 44.83%.
